From ChEMBL document CHEMBL5058644, “Data for DCP probe JNJ-39758979” (2022)

Assays:
[1] = target: LIM domain kinase 1 (Homo sapiens) (UniProt P53667); experiment: LIMK1(h) Millipore kinase panel; conditions: Compound concentration 10.0 uM
[2] = target: Death-associated protein kinase 1 (Homo sapiens) (UniProt P53355); experiment: DAPK1(h) Millipore kinase panel; conditions: Compound concentration 10.0 uM
[3] = target: Adrenergic receptor alpha-1 (Homo sapiens) (UniProt P35348+P25100+P35368); experiment: alpha 1 (non-selective) CEREP panel; conditions: Compound concentration 1.0 uM
[4] = target: Nociceptin receptor (Homo sapiens) (UniProt P41146); experiment: ORL1 (h) CEREP panel; conditions: Compound concentration 1.0 uM
[5] = target: Neuromedin-K receptor (Homo sapiens) (UniProt P29371); experiment: NK3 (h) CEREP panel; conditions: Compound concentration 1.0 uM
[6] = SK+Ca channel CEREP panel; conditions: Compound concentration 1.0 uM
[7] = target: 5-hydroxytryptamine receptor 5A (Homo sapiens) (UniProt P47898); experiment: 5-HT5A (h) (5-ht5a) CEREP panel; conditions: Compound concentration 1.0 uM
[8] = target: Dual specificity protein kinase CLK3 (Homo sapiens) (UniProt P49761); experiment: CLK3(h) Millipore kinase panel; conditions: Compound concentration 10.0 uM
[9] = target: Epidermal growth factor receptor (Homo sapiens) (UniProt P00533); experiment: EGFR(h) Millipore kinase panel; conditions: Compound concentration 10.0 uM
[10] = target: Calcium/calmodulin-dependent protein kinase type 1 (Homo sapiens) (UniProt Q14012); experiment: CaMKI(h) Millipore kinase panel; conditions: Compound concentration 10.0 uM
[11] = target: Interleukin-1 receptor-associated kinase 1 (Homo sapiens) (UniProt P51617); experiment: IRAK1(h) Millipore kinase panel; conditions: Compound concentration 10.0 uM
[12] = target: Angiopoietin-1 receptor (Homo sapiens) (UniProt Q02763); experiment: Tie2(h) Millipore kinase panel; conditions: Compound concentration 10.0 uM
[13] = target: Muscarinic acetylcholine receptor M3 (Homo sapiens) (UniProt P20309); experiment: M3 (h) CEREP panel; conditions: Compound concentration 1.0 uM
[14] = target: Proto-oncogene tyrosine-protein kinase Src (Homo sapiens) (UniProt P12931); experiment: cSRC(h) Millipore kinase panel; conditions: Compound concentration 10.0 uM
[15] = target: Mitogen-activated protein kinase 8 (Homo sapiens) (UniProt P45983); experiment: JNK1α1(h) Millipore kinase panel; conditions: Compound concentration 10.0 uM
[16] = target: Sodium-dependent noradrenaline transporter (Homo sapiens) (UniProt P23975); experiment: NE transporter (h) CEREP panel; conditions: Compound concentration 1.0 uM
[17] = target: Tyrosine-protein kinase BTK (Homo sapiens) (UniProt Q06187); experiment: BTK(h) Millipore kinase panel; conditions: Compound concentration 10.0 uM
[18] = target: ALK tyrosine kinase receptor (Homo sapiens) (UniProt Q9UM73); experiment: ALK(h) Millipore kinase panel; conditions: Compound concentration 10.0 uM
[19] = target: Serine/threonine-protein kinase PLK3 (Homo sapiens) (UniProt Q9H4B4); experiment: Plk3(h) Millipore kinase panel; conditions: Compound concentration 10.0 uM
[20] = target: Sodium-dependent dopamine transporter (Homo sapiens) (UniProt Q01959); experiment: DA transporter (h) CEREP panel; conditions: Compound concentration 1.0 uM
[21] = target: Adenosine receptor A3 (Homo sapiens) (UniProt P0DMS8); experiment: A3 (h) CEREP panel; conditions: Compound concentration 1.0 uM
[22] = target: 5-hydroxytryptamine receptor 1A (Homo sapiens) (UniProt P08908); experiment: 5-HT1A (h) CEREP panel; conditions: Compound concentration 1.0 uM
[23] = target: Adrenergic receptor alpha-2 (Homo sapiens) (UniProt P08913+P18825+P18089); experiment: alpha 2 (non-selective) CEREP panel; conditions: Compound concentration 1.0 uM
[24] = target: 5-hydroxytryptamine receptor 2A (Homo sapiens) (UniProt P28223); experiment: 5-HT2A (h) CEREP panel; conditions: Compound concentration 1.0 uM
[25] = BZD (central) CEREP panel; conditions: Compound concentration 1.0 uM
[26] = target: Muscle, skeletal receptor tyrosine-protein kinase (Homo sapiens) (UniProt O15146); experiment: MuSK(h) Millipore kinase panel; conditions: Compound concentration 10.0 uM
[27] = target: Muscarinic acetylcholine receptor M1 (Homo sapiens) (UniProt P11229); experiment: M1 (h) CEREP panel; conditions: Compound concentration 1.0 uM
[28] = target: Muscarinic acetylcholine receptor M2 (Homo sapiens) (UniProt P08172); experiment: M2 (h) CEREP panel; conditions: Compound concentration 1.0 uM
[29] = target: Tyrosine-protein kinase JAK2 (Homo sapiens) (UniProt O60674); experiment: JAK2(h) Millipore kinase panel; conditions: Compound concentration 10.0 uM
[30] = target: 5-hydroxytryptamine receptor 6 (Homo sapiens) (UniProt P50406); experiment: 5-HT6 (h) (5-ht6) CEREP panel; conditions: Compound concentration 1.0 uM
[31] = target: Tyrosine-protein kinase SYK (Homo sapiens) (UniProt P43405); experiment: Syk(h) Millipore kinase panel; conditions: Compound concentration 10.0 uM
[32] = target: Serine/threonine-protein kinase VRK2 (Homo sapiens) (UniProt Q86Y07); experiment: VRK2(h) Millipore kinase panel; conditions: Compound concentration 10.0 uM
[33] = target: cAMP-dependent protein kinase catalytic subunit alpha (Homo sapiens) (UniProt P17612); experiment: PKA(h) Millipore kinase panel; conditions: Compound concentration 10.0 uM
[34] = target: Ribosomal protein S6 kinase beta-1 (Homo sapiens) (UniProt P23443); experiment: p70S6K(h) Millipore kinase panel; conditions: Compound concentration 10.0 uM
[35] = target: Serine/threonine-protein kinase STK11 (Homo sapiens) (UniProt Q15831); experiment: LKB1(h) Millipore kinase panel; conditions: Compound concentration 10.0 uM
[36] = GABA (non-selective) CEREP panel; conditions: Compound concentration 1.0 uM
[37] = target: Serine/threonine-protein kinase Chk2 (Homo sapiens) (UniProt O96017); experiment: CHK2(h) Millipore kinase panel; conditions: Compound concentration 10.0 uM
[38] = target: Proto-oncogene tyrosine-protein kinase receptor Ret (Homo sapiens) (UniProt P07949); experiment: Ret(h) Millipore kinase panel; conditions: Compound concentration 10.0 uM
[39] = Na+ channel (site 2) CEREP panel; conditions: Compound concentration 1.0 uM
[40] = target: Focal adhesion kinase 1 (Homo sapiens) (UniProt Q05397); experiment: FAK(h) Millipore kinase panel; conditions: Compound concentration 10.0 uM
[41] = target: Casein kinase I isoform delta (Homo sapiens) (UniProt P48730); experiment: CK1δ(h) Millipore kinase panel; conditions: Compound concentration 10.0 uM
[42] = target: Histamine H2 receptor (Homo sapiens) (UniProt P25021); experiment: H2 (h) CEREP panel; conditions: Compound concentration 1.0 uM
[43] = target: Protein kinase C alpha type (Homo sapiens) (UniProt P17252); experiment: PKCα(h) Millipore kinase panel; conditions: Compound concentration 10.0 uM
[44] = target: Serine/threonine-protein kinase 33 (Homo sapiens) (UniProt Q9BYT3); experiment: STK33(h) Millipore kinase panel; conditions: Compound concentration 10.0 uM
[45] = target: Serine/threonine-protein kinase Nek2 (Homo sapiens) (UniProt P51955); experiment: NEK2(h) Millipore kinase panel; conditions: Compound concentration 10.0 uM

Measured: inhibition

Sequence of Serine/threonine-protein kinase VRK2 (Homo sapiens) (Q86Y07 whole entry): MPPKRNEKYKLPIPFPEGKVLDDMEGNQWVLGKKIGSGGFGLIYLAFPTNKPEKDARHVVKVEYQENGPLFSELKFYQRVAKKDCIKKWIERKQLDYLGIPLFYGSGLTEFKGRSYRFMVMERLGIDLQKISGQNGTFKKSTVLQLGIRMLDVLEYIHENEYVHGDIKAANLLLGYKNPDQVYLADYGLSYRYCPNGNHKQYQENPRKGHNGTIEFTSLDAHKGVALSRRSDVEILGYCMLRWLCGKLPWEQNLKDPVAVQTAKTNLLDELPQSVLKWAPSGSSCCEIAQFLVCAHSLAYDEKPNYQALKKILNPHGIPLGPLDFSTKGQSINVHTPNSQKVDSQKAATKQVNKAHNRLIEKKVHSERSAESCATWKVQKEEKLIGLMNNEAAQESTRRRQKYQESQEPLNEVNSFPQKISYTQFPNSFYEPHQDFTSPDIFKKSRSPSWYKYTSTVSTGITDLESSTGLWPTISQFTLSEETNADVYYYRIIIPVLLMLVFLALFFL
Sequence of 5-hydroxytryptamine receptor 1A (Homo sapiens) (P08908 whole entry): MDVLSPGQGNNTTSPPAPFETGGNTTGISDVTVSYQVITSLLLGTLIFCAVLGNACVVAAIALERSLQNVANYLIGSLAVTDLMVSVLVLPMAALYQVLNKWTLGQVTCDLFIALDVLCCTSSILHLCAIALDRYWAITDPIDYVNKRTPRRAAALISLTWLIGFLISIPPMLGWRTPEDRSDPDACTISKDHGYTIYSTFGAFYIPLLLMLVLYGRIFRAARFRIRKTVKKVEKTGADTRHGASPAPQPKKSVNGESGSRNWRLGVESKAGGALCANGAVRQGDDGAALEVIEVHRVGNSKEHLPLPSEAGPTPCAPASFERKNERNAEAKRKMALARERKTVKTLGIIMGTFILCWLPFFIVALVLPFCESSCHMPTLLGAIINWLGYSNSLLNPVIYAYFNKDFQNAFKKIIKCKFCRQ
Sequence of Death-associated protein kinase 1 (Homo sapiens) (P53355 whole entry, looked up): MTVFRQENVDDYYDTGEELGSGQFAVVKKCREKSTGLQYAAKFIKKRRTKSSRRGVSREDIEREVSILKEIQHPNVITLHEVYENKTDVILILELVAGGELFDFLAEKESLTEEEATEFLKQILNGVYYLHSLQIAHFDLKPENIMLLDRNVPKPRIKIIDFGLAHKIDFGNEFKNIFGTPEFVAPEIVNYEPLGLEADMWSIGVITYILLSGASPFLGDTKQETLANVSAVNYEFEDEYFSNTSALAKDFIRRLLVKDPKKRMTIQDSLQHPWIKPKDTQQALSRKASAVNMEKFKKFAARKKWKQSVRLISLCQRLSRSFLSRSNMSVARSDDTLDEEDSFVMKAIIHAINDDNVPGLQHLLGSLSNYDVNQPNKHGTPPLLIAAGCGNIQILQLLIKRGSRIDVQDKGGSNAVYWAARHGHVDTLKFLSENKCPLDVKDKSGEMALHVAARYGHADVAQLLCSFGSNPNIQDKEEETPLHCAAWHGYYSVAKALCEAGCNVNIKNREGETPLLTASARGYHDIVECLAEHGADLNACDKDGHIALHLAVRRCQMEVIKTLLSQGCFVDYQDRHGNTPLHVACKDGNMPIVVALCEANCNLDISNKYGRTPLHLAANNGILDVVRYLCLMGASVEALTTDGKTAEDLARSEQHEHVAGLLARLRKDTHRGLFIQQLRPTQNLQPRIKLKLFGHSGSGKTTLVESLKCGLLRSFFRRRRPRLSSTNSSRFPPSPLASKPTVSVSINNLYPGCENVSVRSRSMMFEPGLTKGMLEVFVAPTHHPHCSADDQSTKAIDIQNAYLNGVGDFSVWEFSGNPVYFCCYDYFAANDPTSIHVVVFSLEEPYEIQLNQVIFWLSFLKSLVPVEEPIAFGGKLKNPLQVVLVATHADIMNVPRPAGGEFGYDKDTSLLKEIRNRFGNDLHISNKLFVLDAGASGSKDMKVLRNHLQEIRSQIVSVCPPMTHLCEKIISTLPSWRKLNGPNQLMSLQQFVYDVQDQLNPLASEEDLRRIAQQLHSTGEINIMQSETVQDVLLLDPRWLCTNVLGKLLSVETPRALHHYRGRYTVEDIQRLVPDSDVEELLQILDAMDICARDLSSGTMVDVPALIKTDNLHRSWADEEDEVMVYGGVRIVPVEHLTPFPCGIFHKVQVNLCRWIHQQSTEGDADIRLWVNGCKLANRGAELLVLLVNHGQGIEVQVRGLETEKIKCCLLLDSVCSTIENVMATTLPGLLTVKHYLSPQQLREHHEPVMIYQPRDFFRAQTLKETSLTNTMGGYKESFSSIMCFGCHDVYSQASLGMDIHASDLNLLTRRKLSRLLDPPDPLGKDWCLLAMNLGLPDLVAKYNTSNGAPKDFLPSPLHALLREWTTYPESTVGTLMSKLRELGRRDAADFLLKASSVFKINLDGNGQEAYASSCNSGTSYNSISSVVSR
Sequence of Serine/threonine-protein kinase Nek2 (Homo sapiens) (P51955 whole entry): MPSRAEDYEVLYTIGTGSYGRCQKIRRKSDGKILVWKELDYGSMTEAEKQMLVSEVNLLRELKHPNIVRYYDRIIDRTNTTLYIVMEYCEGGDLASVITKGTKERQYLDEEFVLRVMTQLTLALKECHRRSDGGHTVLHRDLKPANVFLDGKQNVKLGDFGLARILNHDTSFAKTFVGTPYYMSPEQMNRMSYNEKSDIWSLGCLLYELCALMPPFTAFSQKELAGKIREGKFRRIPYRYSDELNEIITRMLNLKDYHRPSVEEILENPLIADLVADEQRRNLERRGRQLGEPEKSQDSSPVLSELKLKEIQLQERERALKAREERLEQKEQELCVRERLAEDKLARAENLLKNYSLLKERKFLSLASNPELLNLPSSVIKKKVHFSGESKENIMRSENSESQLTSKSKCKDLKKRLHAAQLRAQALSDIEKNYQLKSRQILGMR
Sequence of Histamine H2 receptor (Homo sapiens) (P25021 whole entry): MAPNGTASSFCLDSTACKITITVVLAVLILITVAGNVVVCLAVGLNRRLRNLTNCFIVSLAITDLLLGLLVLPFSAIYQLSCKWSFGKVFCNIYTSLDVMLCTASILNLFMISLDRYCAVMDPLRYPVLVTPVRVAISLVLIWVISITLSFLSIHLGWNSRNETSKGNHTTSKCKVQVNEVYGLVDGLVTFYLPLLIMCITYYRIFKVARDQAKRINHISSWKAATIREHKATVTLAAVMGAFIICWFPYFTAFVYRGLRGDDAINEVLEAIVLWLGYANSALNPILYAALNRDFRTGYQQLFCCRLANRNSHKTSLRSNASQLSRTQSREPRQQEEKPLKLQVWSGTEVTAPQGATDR
Sequence of Casein kinase I isoform delta (Homo sapiens) (P48730 whole entry, looked up, canonical isoform): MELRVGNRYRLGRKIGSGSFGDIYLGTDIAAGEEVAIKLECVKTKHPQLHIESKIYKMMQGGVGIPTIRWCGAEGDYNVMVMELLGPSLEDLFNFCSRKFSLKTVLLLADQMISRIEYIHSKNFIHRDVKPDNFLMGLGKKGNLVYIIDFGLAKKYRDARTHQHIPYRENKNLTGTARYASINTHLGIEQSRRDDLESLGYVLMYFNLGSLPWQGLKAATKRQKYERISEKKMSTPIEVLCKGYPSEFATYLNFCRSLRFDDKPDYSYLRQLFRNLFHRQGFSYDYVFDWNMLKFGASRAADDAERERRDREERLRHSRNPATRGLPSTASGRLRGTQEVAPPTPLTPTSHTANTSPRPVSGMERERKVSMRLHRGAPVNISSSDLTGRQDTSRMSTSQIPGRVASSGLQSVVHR
Sequence of Serine/threonine-protein kinase STK11 (Homo sapiens) (Q15831 whole entry): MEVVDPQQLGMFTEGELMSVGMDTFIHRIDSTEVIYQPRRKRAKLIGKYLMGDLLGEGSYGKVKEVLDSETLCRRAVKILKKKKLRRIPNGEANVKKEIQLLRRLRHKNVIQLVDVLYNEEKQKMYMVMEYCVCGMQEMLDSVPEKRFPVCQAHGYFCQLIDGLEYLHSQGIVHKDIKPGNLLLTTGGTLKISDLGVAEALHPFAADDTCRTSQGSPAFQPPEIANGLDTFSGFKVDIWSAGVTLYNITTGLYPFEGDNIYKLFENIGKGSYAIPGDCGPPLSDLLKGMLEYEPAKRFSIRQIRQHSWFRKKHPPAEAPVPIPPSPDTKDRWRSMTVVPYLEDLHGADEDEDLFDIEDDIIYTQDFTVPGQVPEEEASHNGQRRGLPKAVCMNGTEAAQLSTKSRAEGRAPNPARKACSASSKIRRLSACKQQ
Sequence of Neuromedin-K receptor (Homo sapiens) (P29371 whole entry): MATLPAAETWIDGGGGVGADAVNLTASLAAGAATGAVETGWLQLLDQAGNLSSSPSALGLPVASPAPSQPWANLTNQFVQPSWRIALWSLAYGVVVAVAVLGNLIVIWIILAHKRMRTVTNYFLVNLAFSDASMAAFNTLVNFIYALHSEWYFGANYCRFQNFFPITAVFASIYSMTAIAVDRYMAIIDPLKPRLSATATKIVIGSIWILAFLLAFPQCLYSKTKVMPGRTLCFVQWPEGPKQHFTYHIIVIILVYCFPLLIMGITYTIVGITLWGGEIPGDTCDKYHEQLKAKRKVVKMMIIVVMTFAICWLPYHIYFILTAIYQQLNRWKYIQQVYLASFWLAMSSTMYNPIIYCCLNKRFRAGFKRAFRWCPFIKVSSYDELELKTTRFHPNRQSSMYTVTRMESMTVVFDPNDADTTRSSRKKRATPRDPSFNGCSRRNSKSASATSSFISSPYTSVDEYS
Sequence of Adenosine receptor A3 (Homo sapiens) (P0DMS8 whole entry): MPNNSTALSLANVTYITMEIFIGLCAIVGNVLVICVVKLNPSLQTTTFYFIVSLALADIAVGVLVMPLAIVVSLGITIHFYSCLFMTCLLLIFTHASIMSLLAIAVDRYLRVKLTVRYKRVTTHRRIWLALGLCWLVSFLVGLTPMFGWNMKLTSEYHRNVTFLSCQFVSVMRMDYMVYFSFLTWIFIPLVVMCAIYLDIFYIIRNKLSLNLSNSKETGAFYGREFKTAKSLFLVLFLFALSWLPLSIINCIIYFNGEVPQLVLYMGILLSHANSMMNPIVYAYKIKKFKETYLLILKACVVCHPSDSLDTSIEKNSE

CC(C)c1cc(N2CC[C@@H](N)C2)nc(N)n1
inactive: [1] -10% | [2] -3% | [3] < 10% | [4] < 10% | [5] < 10% | [6] < 10% | [7] < 10% | [8] 9% | [9] 2% | [10] 3% | [11] -6% | [12] 12% | [13] 64% | [14] -5% | [15] 10% | [16] 10% | [17] -9% | [18] 12% | [19] -5% | [20] 18% | [21] < 10% | [22] < 10% | [23] 18% | [24] < 10% | [25] < 10% | [26] -9% | [27] 19% | [28] < 10% | [29] -7% | [30] < 10% | [31] 3% | [32] -2% | [33] -2% | [34] 8% | [35] 0% | [36] < 10% | [37] 4% | [38] -6% | [39] < 10% | [40] -1% | [41] 1% | [42] < 10% | [43] 23% | [44] -4% | [45] -10%
